Measurements published in US10189785B2, “Heterocyclic compound” (TAKEDA PHARMACEUTICAL COMPANY LIMITED, priority 2015, dated 2019).

Columns and labels:
[1] = system: lung adenocarcinoma cell line HCC4006; test: HCC4006 cell growth inhibition test (Test Example 2); format: cell-based; details: Homo sapiens, 120 h, HCC4006 cells, culture for 5 days, CellTiter-Glo; for inhibition at 1 µM: 1 μM test compound, read-out: Rate of inhibition (%) at 1 μM
Description: A lung adenocarcinoma cell line HCC4006 (ATCC) was cultured using an RPMI-1640 medium (Wako Pure Chemical Industries, Ltd.) containing 10% fetal bovine serum and penicillin/streptomycin. 250 cells per well were inoculated into 40 μL of a medium in a 384-well culture plate. On the next day, 10 μL of each test compound was added to the cells. After culture for 5 days, the medium was discarded, and 30 μL of CellTiter-Glo Luminescent Cell Viability Assay solution (Promega Corp., Fitchburg, Wis., U.S.) was added to each well. Light emission signals were measured using EnVision (PerkinElmer, Inc., Waltham, Mass., U.S.).
The rate of inhibition (%) by the test compound was calculated according to the following expression: Rate of inhibition (%)=(1−(Count of the test compound−Blank)/(Control−Blank))×100
In the above expression, a count under compound non-addition conditions was indicated as a control, and a count under cell-free conditions was indicated as a blank.

[2] = biological target: T1, SPT (SPT2-expressing membrane fraction: human SPT1, human SPT2 and human ssSPTa) (Homo sapiens, UniProt O15269+O15270); test: SPT enzyme inhibition test (Test Example 1); format: biochemical; details: read-out: Rate of inhibition (%) at 1 μM
T1 construct: Full-length human SPT1, human SPT2 and human ssSPTa used; made in house; host or cells: FreeStyle 293 cells (pcDNA3.1 vectors, cotransfection); crude membrane fraction used
T1 sequence (O15269 1-473): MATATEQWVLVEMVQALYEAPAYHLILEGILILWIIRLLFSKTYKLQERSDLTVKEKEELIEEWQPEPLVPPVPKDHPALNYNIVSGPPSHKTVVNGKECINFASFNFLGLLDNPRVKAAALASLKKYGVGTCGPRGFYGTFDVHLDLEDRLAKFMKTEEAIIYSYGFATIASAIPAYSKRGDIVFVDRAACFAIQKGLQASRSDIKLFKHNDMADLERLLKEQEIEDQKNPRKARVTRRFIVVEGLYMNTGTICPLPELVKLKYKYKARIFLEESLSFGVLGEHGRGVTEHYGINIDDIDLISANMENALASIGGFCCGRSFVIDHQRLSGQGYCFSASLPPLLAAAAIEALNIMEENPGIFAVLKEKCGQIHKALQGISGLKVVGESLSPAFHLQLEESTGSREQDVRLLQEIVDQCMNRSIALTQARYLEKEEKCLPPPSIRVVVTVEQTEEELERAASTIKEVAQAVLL
T1 sequence (O15270 1-562): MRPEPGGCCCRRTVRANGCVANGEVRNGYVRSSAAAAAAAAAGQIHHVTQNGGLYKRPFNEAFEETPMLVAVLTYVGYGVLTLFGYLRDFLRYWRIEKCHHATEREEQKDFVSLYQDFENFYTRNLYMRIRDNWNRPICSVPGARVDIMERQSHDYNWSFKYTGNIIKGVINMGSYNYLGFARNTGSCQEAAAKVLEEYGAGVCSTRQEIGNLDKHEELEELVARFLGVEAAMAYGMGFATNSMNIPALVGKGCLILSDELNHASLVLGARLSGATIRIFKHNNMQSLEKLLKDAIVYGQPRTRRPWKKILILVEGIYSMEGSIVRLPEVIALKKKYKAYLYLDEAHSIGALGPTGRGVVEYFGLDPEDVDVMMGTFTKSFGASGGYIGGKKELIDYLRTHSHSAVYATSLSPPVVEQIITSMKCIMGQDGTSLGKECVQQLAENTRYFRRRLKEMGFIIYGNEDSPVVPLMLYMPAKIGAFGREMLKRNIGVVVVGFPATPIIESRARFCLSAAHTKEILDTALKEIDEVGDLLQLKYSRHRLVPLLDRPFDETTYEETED
T1 sequence (Q969W0 1-71 partner): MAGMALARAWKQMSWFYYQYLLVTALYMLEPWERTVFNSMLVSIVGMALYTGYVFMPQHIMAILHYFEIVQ
Description: After culture for 3 days, the cells were recovered and frozen at −80° C. to obtain expressing cells. The frozen cells were suspended in a 50 mM Hepes buffer (pH 7.5) containing 250 mM sucrose, 5 mM ethylenediaminetetraacetic acid (EDTA), 5 mM dithiothreitol (DTT) and Complete, EDTA-free (Roche Applied Science, Penzberg, Upper Bavaria, Germany). The cells were disrupted (on ice, 20,000 rpm, 20 sec×2) using POLYTORON (Central Scientific Commerce, Inc.). After centrifugation at 2000 rpm (850×g) for 10 minutes, the supernatant was recovered. Subsequently, the supernatant was centrifuged at 40,000 rpm (186,010×g) for 60 minutes, and the supernatant was discarded. The pellets were suspended in a 50 mM Hepes buffer (pH 7.5) containing 5 mM EDTA, 5 mM DTT and Complete, EDTA-free, passed through a 40-μm cell strainer and stored at −80° C. The resultant was used as a SPT2-expressing membrane fraction. The protein concentration was determined using CBB Protein Assay with bovine serum albumin used as standards.
5 μL of each test compound was mixed with 10 μL of the 100 μg/mL SPT2-expressing membrane fraction using an assay buffer (100 mM Hepes (pH 8.0) containing 2.5 mM EDTA, 5 mM DTT and 0.01% fatty acid-free bovine serum albumin), and the mixture was left standing at room temperature for 60 minutes. Subsequently, 5 μL of a substrate solution containing 2 mM L-serine and 20 μM palmitoyl CoA was added thereto, and an enzyme reaction was carried out in a 384-well plate using 20 μL in total of the reaction system. After reaction at room temperature for 15 minutes, the reaction was terminated by the addition of 20 μL of a 2% aqueous formic acid solution. Subsequently, 40 μL of acetonitrile containing 600 nM C17-sphinganine (Avanti Polar Lipids, Inc., Alabaster, Ala., U.S.) was added thereto as an internal standard. The reaction sample was subjected to on-line solid-layer extraction using RapidFire 300 (Agilent Technologies Inc., Santa Clara, Calif., U.S.). […] Mass chromatograms were obtained using Analyst software (version 1.5.0, AB SCIEX). Their mass chromatogram areas were respectively calculated, and the rate of inhibition (%) by the test compound was calculated using an area ratio (the value of the reaction product was divided by the value of the internal standard).

Work on CCn1ncc2c1[C@@H](NC(=O)c1ccc(Cl)cc1C(F)(F)F)CCN2C(=O)c1cnc(OC)c(OC)c1 [Example 165A, 4-Chloro-N-((7S)-4-((5,6-dimethoxypyridin-3-yl)carbonyl)-1-ethyl-4,5,6,7-tetrahydro-1H-pyrazolo[4,3-b]pyridin-7-yl)-2-(trifluoromethyl)benzamide] yielded an inhibition at 1 µM [1] of 52% and an inhibition at 1 µM [2] of 101%.

In the case of CCn1ncc2c1C(NC(=O)c1ccccc1OC(F)(F)F)CCN2C(=O)c1cnc(OC)c(OC)c1 (stereo not drawn) [Example 155A, N-(4-((5,6-Dimethoxypyridin-3-yl)carbonyl)-1-ethyl-4,5,6,7-tetrahydro-1H-pyrazolo[4,3-b]pyridin-7-yl)-2-(trifluoromethoxy)benzamide], the inhibition at 1 µM [1] is reported as 53% and the inhibition at 1 µM [2] is reported as 103%.

Work on Cc1cc(C(=O)N[C@@H]2CCN(C(=O)c3cc(Cl)c4nccnc4c3)C[C@@H]2c2ccc(F)cc2)n(C)n1 [Example 58B, N-((3S,4R)-1-((8-chloroquinoxalin-6-yl)carbonyl)-3-(4-fluorophenyl)piperidin-4-yl)-1,3-dimethyl-1H-pyrazole-5-carboxamide] yielded an inhibition at 1 µM [1] of 49% and an inhibition at 1 µM [2] of 101%.

For COc1cc(C(=O)N2CCC(NC(=O)c3ccccc3OC(F)(F)F)c3c2cnn3C)cnc1OC (stereo not drawn) [Example 133A, N-(4-((5,6-Dimethoxypyridin-3-yl)carbonyl)-1-methyl-4,5,6,7-tetrahydro-1H-pyrazolo[4,3-b]pyridin-7-yl)-2-(trifluoromethoxy)benzamide], the inhibition at 1 µM [1] was 50% and the inhibition at 1 µM [2] was 101%.

For COc1cc(C(=O)N2CC[C@@H](NC(=O)c3ncccc3C(F)(F)F)[C@@H](c3ccc(F)cc3)C2)cnc1OC [Example 191B, N-((3S,4R)-1-((5,6-dimethoxypyridin-3-yl)carbonyl)-3-(4-fluorophenyl)piperidin-4-yl)-3-(trifluoromethyl)pyridine-2-carboxamide], the inhibition at 1 µM [1] was 47% and the inhibition at 1 µM [2] was 100%.

In the case of COc1cc(C(=O)N2CC[C@@H](NC(=O)c3ccccc3OC(F)F)[C@H](c3ccc(F)cc3)C2)cnc1OC [Example 361B, 2-(difluoromethoxy)-N-((3R,4R)-1-((5,6-dimethoxypyridin-3-yl)carbonyl)-3-(4-fluorophenyl)piperidin-4-yl)benzamide], the inhibition at 1 µM [1] is reported as 45% and the inhibition at 1 µM [2] is reported as 102%.

For Cc1cc(NC(=O)C2CC2)sc1C(=O)N1CC[C@@H](NC(=O)c2ccccc2OC(F)(F)F)[C@@H](c2ccccc2)C1 [Example 35B, N-((3S,4R)-1-((5-((cyclopropylcarbonyl)amino)-3-methyl-2-thienyl)carbonyl)-3-phenylpiperidin-4-yl)-2-(trifluoromethoxy)benzamide], the inhibition at 1 µM [1] was 40% and the inhibition at 1 µM [2] was 101%.

With COc1cc(C(=O)N2CC[C@@H](NC(=O)c3cc(C(F)(F)F)nn3C)[C@@H](c3ccc(F)cc3)C2)cc2nccnc12 [Example 352B, N-((3S,4R)-3-(4-fluorophenyl)-1-((8-methoxyquinoxalin-6-yl)carbonyl)piperidin-4-yl)-1-methyl-3-(trifluoromethyl)-1H-pyrazole-5-carboxamide] the inhibition at 1 µM [1] was 50% and the inhibition at 1 µM [2] was 102%.

CCOc1cc(C(=O)N[C@@H]2CCN(C(=O)c3cc(Cl)c4nccnc4c3)C[C@@H]2c2ccccc2)n(C)n1 [Example 170B, N-((3S,4R)-1-((8-Chloroquinoxalin-6-yl)carbonyl)-3-phenylpiperidin-4-yl)-3-ethoxy-1-methyl-1H-pyrazole-5-carboxamide] gave an inhibition at 1 µM [1] of 50% and an inhibition at 1 µM [2] of 100%.

COc1cc(C(=O)N2CC[C@@H](NC(=O)c3cn(C)nc3C)[C@@H](c3ccccc3)C2)cnc1OC [Example 152B, N-((3S,4R)-1-((5,6-dimethoxypyridin-3-yl)carbonyl)-3-phenylpiperidin-4-yl)-1,3-dimethyl-1H-pyrazole-4-carboxamide] gave an inhibition at 1 µM [1] of 33% and an inhibition at 1 µM [2] of 96%.

For COc1cc(C(=O)N2CC[C@@H](NC(=O)c3ncccc3C(F)(F)F)[C@@H](c3ccccc3)C2)cnc1OC [Example 64B, N-((3S,4R)-1-((5,6-dimethoxypyridin-3-yl)carbonyl)-3-phenylpiperidin-4-yl)-3-(trifluoromethyl)pyridine-2-carboxamide], the inhibition at 1 µM [1] was 49% and the inhibition at 1 µM [2] was 100%.

COc1cc(C(=O)N2CC[C@@H](NC(=O)c3c(C)c(C)nn3C)[C@@H](c3ccccc3)C2)cc2nccnc12 [Example 324B, N-((3S,4R)-1-((8-methoxyquinoxalin-6-yl)carbonyl)-3-phenylpiperidin-4-yl)-1,3,4-trimethyl-1H-pyrazole-5-carboxamide] gave an inhibition at 1 µM [1] of 49% and an inhibition at 1 µM [2] of 99%.

With O=C(N[C@@H]1CCN(C(=O)c2cc(Cl)c3nccnc3c2)C[C@@H]1c1ccccc1)c1ncccc1Cl [Example 246B, 3-Chloro-N-((3S,4R)-1-((8-chloroquinoxalin-6-yl)carbonyl)-3-phenylpiperidin-4-yl)pyridine-2-carboxamide] the inhibition at 1 µM [1] was 55% and the inhibition at 1 µM [2] was 101%.

For Cc1nn(C)c(Cl)c1C(=O)N[C@@H]1CCN(C(=O)c2cc(Cl)c3nccnc3c2)C[C@@H]1c1ccc(F)cc1 [Example 59B, 5-Chloro-N-((3S,4R)-1-((8-chloroquinoxalin-6-yl)carbonyl)-3-(4-fluorophenyl)piperidin-4-yl)-1,3-dimethyl-1H-pyrazole-4-carboxamide], the inhibition at 0.3 µM ([1]; 0.3 μM test compound, read-out: Rate of inhibition at 0.3 μM) was 53% and the inhibition at 1 µM [2] was 101%.

For CCn1ncc2c1[C@@H](NC(=O)c1ccccc1OC(F)(F)F)CCN2C(=O)c1cnc(OC)c(OC)c1 [Example 178A, N-((7S)-4-((5,6-Dimethoxypyridin-3-yl)carbonyl)-1-ethyl-4,5,6,7-tetrahydro-1H-pyrazolo[4,3-b]pyridin-7-yl)-2-(trifluoromethoxy)benzamide], the inhibition at 1 µM [1] was 53% and the inhibition at 1 µM [2] was 101%.
